Measured values from ChEMBL document CHEMBL2417425, “Design and synthesis of positional isomers of 5 and 6-bromo-1-[(phenyl)sulfonyl]-2-[(4-nitrophenoxy)methyl]-1H-benzimidazoles as possible antimicrobial and antitubercular agents” (2013).
≈ marks a conversion by molar mass, not a printed value.

What was measured:
Type in all cases: functional
Rhizopus = experiment: Antifungal activity against Rhizopus sp. assessed as growth inhibition by serial dilution method
Aspergillus flavus = experiment: Antifungal activity against Aspergillus flavus assessed as growth inhibition by serial dilution method
Staphylococcus aureus = experiment: Antibacterial activity against Staphylococcus aureus assessed as growth inhibition by serial dilution method
[1] = tested on: Mycobacterium tuberculosis; experiment: Antimycobacterial activity against Mycobacterium tuberculosis H37Rv assessed as growth inhibition at 0.3125 to 5 ug/mL by resazurin assay
Klebsiella pneumoniae [2] = experiment: Antibacterial activity against Klebsiella pneumoniae assessed as growth inhibition by serial dilution method
[3] = tested on: Mycobacterium tuberculosis; experiment: Antimycobacterial activity against Mycobacterium tuberculosis H37Rv assessed as growth inhibition at 1 to 100 ug/mL by resazurin assay; details: for MIC: Mycobacterium tuberculosis, H37Rv
[4] = tested on: Mycolicibacterium smegmatis; experiment: Antimycobacterial activity against Mycobacterium smegmatis ATCC 19420 assessed as growth inhibition at 1 to 100 ug/mL by resazurin assay
Candida albicans = experiment: Antifungal activity against Candida albicans assessed as growth inhibition by serial dilution method
[5] = tested on: Mycolicibacterium fortuitum; experiment: Antimycobacterial activity against Mycobacterium fortuitum ATCC 19542 assessed as growth inhibition at 1 to 100 ug/mL by resazurin assay
Escherichia coli = experiment: Antibacterial activity against Escherichia coli assessed as growth inhibition by serial dilution method
[6] = tested on: Mycolicibacterium fortuitum; experiment: Antimycobacterial activity against Mycobacterium fortuitum ATCC 19542 assessed as growth inhibition at 0.3125 to 5 ug/mL by resazurin assay
[7] = tested on: Mycolicibacterium smegmatis; experiment: Antimycobacterial activity against Mycobacterium smegmatis ATCC 19420 assessed as growth inhibition at 0.3125 to 5 ug/mL by resazurin assay
Klebsiella pneumoniae [8] = experiment: Potency index, ratio of ciprofloxacin MIC to compound MIC for Klebsiella pneumoniae

Row | Compound | MIC (Rhizopus) [µg/mL] | MIC (Aspergillus flavus) [µg/mL] | MIC (Staphylococcus aureus) [µg/mL] | MIC [1] [µg/mL] | MIC (Klebsiella pneumoniae [2]) [µg/mL] | growth inhibition (GI) [3] [%] | MIC [3] [µg/mL] | MIC [4] [µg/mL] | MIC (Candida albicans) [µg/mL] | MIC [5] [µg/mL] | MIC (Escherichia coli) [µg/mL] | MIC [6] [µg/mL] | MIC [7] [µg/mL] | PI (Klebsiella pneumoniae [8])
1 | N#Cc1cccc(S(=O)(=O)n2c(COc3ccc([N+](=O)[O-])cc3)nc3cc(Br)ccc32)c1 | 128 (≈ 249 µM) | 128 (≈ 249 µM) | 128 (≈ 249 µM) | 5 (≈ 9.74 µM) | 128 (≈ 249 µM) | <90 | > 100 | 10 (≈ 19.5 µM) | 64 (≈ 125 µM) | > 100 | 64 (≈ 125 µM) |  |  | 
2 | Cc1c(F)cccc1S(=O)(=O)n1c(COc2ccc([N+](=O)[O-])cc2)nc2cc(Br)ccc21 | 256 (≈ 492 µM) | 256 (≈ 492 µM) | 64 (≈ 123 µM) | 10 (≈ 19.2 µM) | 128 (≈ 246 µM) | <90 | > 100 | > 100 | 128 (≈ 246 µM) | 10 (≈ 19.2 µM) | > 256 | 10 (≈ 19.2 µM) | 10 (≈ 19.2 µM) | 
3 | O=[N+]([O-])c1ccc(OCc2nc3cc(Br)ccc3n2S(=O)(=O)c2ccccc2Cl)cc1 | 16 (≈ 30.6 µM) | 32 (≈ 61.2 µM) | 16 (≈ 30.6 µM) | 0.625 (≈ 1.2 µM) | 8 (≈ 15.3 µM) | 90 | 1 (≈ 1.91 µM) | 1 (≈ 1.91 µM) | 8 (≈ 15.3 µM) | 10 (≈ 19.1 µM) | 4 (≈ 7.65 µM) | 10 (≈ 19.1 µM) | 1.25 (≈ 2.39 µM) | 1
4 | COc1ccc(S(=O)(=O)n2c(COc3ccc([N+](=O)[O-])cc3)nc3cc(Br)ccc32)c(OC)c1 | 256 (≈ 467 µM) | 128 (≈ 233 µM) | 64 (≈ 117 µM) | 1.25 (≈ 2.28 µM) | 128 (≈ 233 µM) | 90 | 1 (≈ 1.82 µM) | 1 (≈ 1.82 µM) | 128 (≈ 233 µM) | 10 (≈ 18.2 µM) | 256 (≈ 467 µM) | 1.25 (≈ 2.28 µM) | 1.25 (≈ 2.28 µM) | 
5 | Cc1cccc(S(=O)(=O)n2c(COc3ccc([N+](=O)[O-])cc3)nc3cc(Br)ccc32)c1 | 128 (≈ 255 µM) | > 256 | 128 (≈ 255 µM) | 1.25 (≈ 2.49 µM) | > 256 | 90 | > 100 | 10 (≈ 19.9 µM) | 64 (≈ 127 µM) | 10 (≈ 19.9 µM) | 64 (≈ 127 µM) | 10 (≈ 19.9 µM) |  | 
6 | COc1ccc(OC)c(S(=O)(=O)n2c(COc3ccc([N+](=O)[O-])cc3)nc3ccc(Br)cc32)c1 | 128 (≈ 233 µM) | 256 (≈ 467 µM) | 256 (≈ 467 µM) | 5 (≈ 9.12 µM) | 128 (≈ 233 µM) | <90 | 10 (≈ 18.2 µM) | 10 (≈ 18.2 µM) | > 256 | > 100 | > 256 |  | 10 (≈ 18.2 µM) | 
7 | O=[N+]([O-])c1ccc(OCc2nc3ccc(Br)cc3n2S(=O)(=O)c2cc(F)ccc2F)cc1 | 256 (≈ 488 µM) | 64 (≈ 122 µM) | 128 (≈ 244 µM) | 2.5 (≈ 4.77 µM) | > 256 | <90 | 10 (≈ 19.1 µM) | 10 (≈ 19.1 µM) | 128 (≈ 244 µM) | 10 (≈ 19.1 µM) | 64 (≈ 122 µM) | 10 (≈ 19.1 µM) | 10 (≈ 19.1 µM) | 
8 | O=[N+]([O-])c1ccc(OCc2nc3ccc(Br)cc3n2S(=O)(=O)c2ccc(Cl)cc2Cl)cc1 | > 256 | 128 (≈ 230 µM) | 64 (≈ 115 µM) |  | 256 (≈ 459 µM) | 0 | > 100 | > 100 | > 256 | > 100 | > 256 |  |  | 
9 | O=[N+]([O-])c1ccc(OCc2nc3ccc(Br)cc3n2S(=O)(=O)c2cc(Cl)ccc2Cl)cc1 | 128 (≈ 230 µM) | 256 (≈ 459 µM) | 64 (≈ 115 µM) | 10 (≈ 17.9 µM) | 128 (≈ 230 µM) | 90 | 10 (≈ 17.9 µM) | > 100 | > 256 | 10 (≈ 17.9 µM) | 128 (≈ 230 µM) | 10 (≈ 17.9 µM) |  | 
10 | O=[N+]([O-])c1ccc(OCc2nc3ccc(Br)cc3n2S(=O)(=O)c2ccccc2[N+](=O)[O-])cc1 | 256 (≈ 480 µM) | > 256 | > 256 | 1.25 (≈ 2.34 µM) | 256 (≈ 480 µM) | 90 | 1 (≈ 1.88 µM) | 1 (≈ 1.88 µM) | > 256 | 10 (≈ 18.8 µM) | 128 (≈ 240 µM) | 1.25 (≈ 2.34 µM) | 1.25 (≈ 2.34 µM) | 
11 | N#Cc1cccc(S(=O)(=O)n2c(COc3ccc([N+](=O)[O-])cc3)nc3ccc(Br)cc32)c1 | 128 (≈ 249 µM) | > 256 | 256 (≈ 499 µM) | 5 (≈ 9.74 µM) | 256 (≈ 499 µM) | <90 | > 100 | 10 (≈ 19.5 µM) | 128 (≈ 249 µM) | > 100 | > 256 |  |  | 
12 | Cc1c(F)cccc1S(=O)(=O)n1c(COc2ccc([N+](=O)[O-])cc2)nc2ccc(Br)cc21 | 256 (≈ 492 µM) | > 256 | > 256 | 1.25 (≈ 2.4 µM) | > 256 | <90 | 10 (≈ 19.2 µM) | > 100 | 256 (≈ 492 µM) | > 100 | 256 (≈ 492 µM) |  |  | 
